Results from paper PMC9948168, “Vanillin-Based Indolin-2-one Derivative Bearing a Pyridyl Moiety as a Promising Anti-Breast Cancer Agent via Anti-Estrogenic Activity” (ACS Omega, 2023).

Key:
Assay in all cases: NCI-60 one-dose screening
Format in all cases: cell-based
[1] = tested on: SR; settings: Homo sapiens, Leukemias, read-out: GI (%)
Method: (§1) Compounds 5a–c and 6a–o were tested using standard NCI protocols for in vitro activity at the National Cancer Institute (NCI, Bethesda, Maryland, USA), wherein compounds were tested using one single concentration of 10 μM against 60 cell lines of nine different cancer types. […] Excellent activity was observed against a single NSCLC cell line, EKVX, for compounds 5a–c (GIs = 77–86%, Table 1) with no observed activity for indoles with substituted vanillin 6a–o.
(§2) Anticancer activity was tested against 60 cancer cell lines at the NCI, Bethesda, USA. The screening process was done with a single dosage of 10 μM according to NCI protocols published on the NCI website https://dtp.cancer.gov/discovery_development/nci-60/methodology.htm.

[2] = tested on: HOP-92; settings: Homo sapiens, HOP-92, Non-Small Cell Lung Cancer, read-out: GI (%)
Method: as §1, §2

[3] = tested on: OVCAR-4; settings: Homo sapiens, OVCAR-4, 10 μM; OVCAR-4, Ovarian Cancer; read-out: GI (%)
Method: as §1, §2

[4] = tested on: A498; settings: Homo sapiens, A498, Renal Cancer, read-out: GI (%)
Method: as §1, §2

[5] = tested on: NCI-H322M; settings: Homo sapiens, Non-Small Cell Lung Cancer, read-out: GI (%)
Method: as §1, §2

[6] = tested on: HT29; settings: Homo sapiens, HT-29, HT29, Colon Cancer, read-out: GI (%)
Method: as §1, §2

[7] = tested on: SK-MEL-2; settings: Homo sapiens, SK-MEL-2, Melanoma, read-out: GI (%)
Method: as §1, §2

[8] = tested on: KM12; settings: Homo sapiens, KM12, Colon Cancer, read-out: GI (%)
Method: as §1, §2

[9] = tested on: MCF7; settings: Homo sapiens, MCF7, 10 μM; MCF7, Breast Cancer; read-out: GI (%)
Method: as §1, §2

[10] = tested on: TK-10; settings: Homo sapiens, TK-10, Renal Cancer, read-out: GI (%)
Method: as §1, §2

[11] = tested on: HCT-15; settings: Homo sapiens, HCT-15, Colon Cancer, read-out: GI (%)
Method: as §1, §2

[12] = tested on: MOLT-4; settings: Homo sapiens, MOLT-4, Leukemias, read-out: GI (%)
Method: as §1, §2

[13] = tested on: MDA-MB-435; settings: Homo sapiens, MDA-MB-435, Melanoma, read-out: GI (%)
Method: as §1, §2

[14] = tested on: NCI/ADR-RES; settings: Homo sapiens, Ovarian Cancer, read-out: GI (%)
Method: as §1, §2

[15] = tested on: NCI-H460; settings: Homo sapiens, NCI-H460, Non-Small Cell Lung Cancer, read-out: GI (%)
Method: as §1, §2

[16] = tested on: 786-0; settings: Homo sapiens, 786-0, Renal Cancer, read-out: GI (%)
Method: as §1, §2

[17] = tested on: HCC-2998; settings: Homo sapiens, HCC-2998, Colon Cancer, read-out: GI (%)
Method: as §1, §2

[18] = tested on: COLO 205; settings: Homo sapiens, COLO 205, Colon Cancer, read-out: GI (%)
Method: as §1, §2

[19] = tested on: SF-539; settings: Homo sapiens, SF-539, CNS Cancer, read-out: GI (%)
Method: as §1, §2

[20] = tested on: NCI-H23; settings: Homo sapiens, NCI-H23, Non-Small Cell Lung Cancer, read-out: GI (%)
Method: as §1, §2

[21] = tested on: ACHN; settings: Homo sapiens, Renal Cancer, read-out: GI (%)
Method: as §1, §2

[22] = tested on: U251; settings: Homo sapiens, U-251, U251, CNS Cancer, read-out: GI (%)
Method: as §1, §2

[23] = tested on: HL-60(TB); settings: Homo sapiens, Leukemias, read-out: GI (%)
Method: as §1, §2

[24] = tested on: EKVX; settings: Homo sapiens, Non-Small Cell Lung Cancer, read-out: GI (%)
Method: as §1, §2

[25] = tested on: CCRF-CEM; settings: Homo sapiens, Leukemias, read-out: GI (%)
Method: as §1, §2

[26] = tested on: OVCAR-8; settings: Homo sapiens, OVCAR-8, Ovarian Cancer, read-out: GI (%)
Method: as §1, §2

[27] = tested on: LOX IMVI; settings: Homo sapiens, Melanoma, read-out: GI (%)
Method: as §1, §2

[28] = tested on: OVCAR-3; settings: Homo sapiens, OVCAR-3, 10 μM; OVCAR-3, Ovarian Cancer; read-out: GI (%)
Method: as §1, §2

[29] = tested on: OVCAR-5; settings: Homo sapiens, OVCAR-5, Ovarian Cancer, read-out: GI (%)
Method: as §1, §2

[30] = tested on: HS 578T; settings: Homo sapiens, Breast Cancer, read-out: GI (%)
Method: as §1, §2

[31] = tested on: A549/ATCC; settings: Homo sapiens, Non-Small Cell Lung Cancer, read-out: GI (%)
Method: as §1, §2

[32] = tested on: SF-268; settings: Homo sapiens, SF-268, CNS Cancer, read-out: GI (%)
Method: as §1, §2

[33] = tested on: SNB-19; settings: Homo sapiens, SNB-19, CNS Cancer, read-out: GI (%)
Method: as §1, §2

[34] = tested on: RPMI-8226; settings: Homo sapiens, RPMI-8226, Leukemias, read-out: GI (%)
Method: as §1, §2

[35] = tested on: PC-3; settings: Homo sapiens, PC-3, Prostate Cancer, read-out: GI (%)
Method: as §1, §2

[36] = tested on: UO-31; settings: Homo sapiens, UO-31, Renal Cancer, read-out: GI (%)
Method: as §1, §2

Structure (SMILES)	inhibition at 10 µM [1] [%]	inhibition at 10 µM [2] [%]	inhibition at 10 µM [3] [%]	inhibition at 10 µM [4] [%]	inhibition at 10 µM [5] [%]	inhibition at 10 µM [6] [%]	inhibition at 10 µM [7] [%]	inhibition at 10 µM [8] [%]	inhibition at 10 µM [9] [%]	inhibition at 10 µM [10] [%]	inhibition at 10 µM [11] [%]	inhibition at 10 µM [12] [%]	inhibition at 10 µM [13] [%]	inhibition at 10 µM [14] [%]	inhibition at 10 µM [15] [%]	inhibition at 10 µM [16] [%]	inhibition at 10 µM [17] [%]	inhibition at 10 µM [18] [%]	inhibition at 10 µM [19] [%]	inhibition at 10 µM [20] [%]	other results
COc1cc(C=C2C(=O)Nc3ccccc32)ccc1OCc1ccccn1 (mixture of isomers) [6e]	21.7	28.1	8.74	22.2	8.2	1.19	-1.21	3.09	50 to 65	-51.2	20	12.5	-7.05	4.39	0.59	1.32	-16.2	-16	15.1	12.6	inhibition at 10 µM [21]: 9.08%; inhibition at 10 µM [22]: 9.28%; inhibition at 10 µM [23]: 13%; inhibition at 10 µM [24]: 22.4%; inhibition at 10 µM [25]: 8.27%; inhibition at 10 µM [26]: 0.31%; inhibition at 10 µM [27]: 3.36%; inhibition at 10 µM [28]: 0.9%; inhibition at 10 µM [29]: -3.35%; inhibition at 10 µM [30]: -1.16%; inhibition at 10 µM [31]: -7.19%; inhibition at 10 µM [32]: 6.47%; inhibition at 10 µM [33]: 9.82%; inhibition at 10 µM [34]: 15.2%; inhibition at 10 µM [35]: 7.05%; inhibition at 10 µM [36]: 30.7%
COc1cc(C=C2C(=O)Nc3ccc(Cl)cc32)ccc1OCc1ccc(F)cc1 (mixture of isomers) [6h]	58.1	11.7	74 to 97	6.57	10.7	5.93	-7.21	-0.4	51	-29	13.6	23.3	8.73	11.7	29.5	-0.02	-7.02	6.56	7.83	18.8	inhibition at 10 µM [21]: 47.3%; inhibition at 10 µM [22]: 49.3%; inhibition at 10 µM [23]: -2.34%; inhibition at 10 µM [24]: 11.5%; inhibition at 10 µM [25]: 30.5%; inhibition at 10 µM [26]: 8.78%; inhibition at 10 µM [27]: 31.7%; inhibition at 10 µM [29]: 3.31%; inhibition at 10 µM [30]: 5.91%; inhibition at 10 µM [31]: 15.1%; inhibition at 10 µM [32]: 9.84%; inhibition at 10 µM [33]: 8.68%; inhibition at 10 µM [34]: -0.5%; inhibition at 10 µM [35]: 15.8%; inhibition at 10 µM [36]: 25.7%
COc1cc(/C=C2/C(=O)Nc3ccc(Cl)cc32)ccc1OCc1ccccc1 [6f]	-9.47	6.71	-6.85	-2.34	2.56	-2.07	-0.03	-0.66	19.2	-15.1	4.2	3.2	-1.21	-2.56	-1.96	-3.53	-7.18	-7.79	2.76	1.55	inhibition at 10 µM [21]: 3.68%; inhibition at 10 µM [22]: 2.36%; inhibition at 10 µM [23]: 0.49%; inhibition at 10 µM [24]: 4.35%; inhibition at 10 µM [25]: 1.07%; inhibition at 10 µM [26]: -6.25%; inhibition at 10 µM [27]: -3.97%; inhibition at 10 µM [28]: -6.72%; inhibition at 10 µM [29]: -0.26%; inhibition at 10 µM [30]: 3.94%; inhibition at 10 µM [31]: -0.72%; inhibition at 10 µM [32]: 5.46%; inhibition at 10 µM [33]: 3.8%; inhibition at 10 µM [34]: -5.21%; inhibition at 10 µM [35]: 10%; inhibition at 10 µM [36]: 22.4%
COc1cc(/C=C2/C(=O)Nc3ccccc32)ccc1OCc1ccc(F)cc1 [6c]	9.9	0.18	-2.67	10.8	-3.28	-4.59	-7.35	-0.58	12.2	-29.6	-1.14	3.23	-3.45	-2.39	13.6	-6.73	-18.9	-11.2	-2.09	1.03	inhibition at 10 µM [21]: -2.09%; inhibition at 10 µM [22]: -6.26%; inhibition at 10 µM [23]: -15.2%; inhibition at 10 µM [24]: 2.35%; inhibition at 10 µM [25]: -2.41%; inhibition at 10 µM [26]: -1.99%; inhibition at 10 µM [27]: 2.75%; inhibition at 10 µM [28]: -16.7%; inhibition at 10 µM [29]: -6.64%; inhibition at 10 µM [30]: -15.2%; inhibition at 10 µM [31]: -7.83%; inhibition at 10 µM [32]: -5.39%; inhibition at 10 µM [33]: 0.68%; inhibition at 10 µM [34]: -6.91%; inhibition at 10 µM [35]: -0.92%; inhibition at 10 µM [36]: 15.3%
COc1cc(/C=C2/C(=O)Nc3cc(Cl)ccc32)ccc1OCc1ccc(F)cc1 [6m]	2.45	10.8	16.8	5.75	1.78	-5.1	0.15	-2.27	42.9	-85.2	10.9	-0.43	-3.13	-0.91	1.02	-7.88	3.17	-10.2	4.99	-0.55	inhibition at 10 µM [21]: 6.43%; inhibition at 10 µM [22]: -10.6%; inhibition at 10 µM [23]: -20.4%; inhibition at 10 µM [24]: 23.5%; inhibition at 10 µM [26]: 1.34%; inhibition at 10 µM [27]: 6.49%; inhibition at 10 µM [28]: -1.69%; inhibition at 10 µM [29]: 1.44%; inhibition at 10 µM [30]: 8.25%; inhibition at 10 µM [31]: -9.5%; inhibition at 10 µM [32]: -0.8%; inhibition at 10 µM [33]: -3.75%; inhibition at 10 µM [34]: -13.2%; inhibition at 10 µM [35]: 13%; inhibition at 10 µM [36]: 20.2%
